Test results: patent EP0011277A1, “Dechloromaytansinoids, their production and use and pharmaceutical compositions containing them” (priority 1978, dated 1980)
≈ marks a conversion by molar mass, not a printed value. Where two headings read alike, the source gives them in different places.

What was measured:
leukemia P-388 = assay: Antitumor therapeutic test in mice, leukemia P-388 (NCI protocol), life span prolongation; format: in vivo; conditions: intraperitoneally once daily for 9 consecutive days
Procedure: (§1) Therapeutic tests were carried out in mice according to NCI-protocols 1,200 and 1,300, Cancer Chemother, Reports, Part 3, 1972, Vol.3, No.2, in which leukemia P-388 and melanoma B-16 tumor cells had been intraperitoneally transplanted, compound (I) being administered intraperitoneally once daily for 9 consecutive days.

melanoma B-16 = assay: Antitumor therapeutic test in mice, melanoma B-16 (NCI protocol), life span prolongation; format: in vivo; conditions: intraperitoneally once daily for 9 consecutive days
Procedure: as §1

Tetrahymena pyriformis W = assay: Antiprotozoal activity, growth inhibition by serial dilution method; format: cell-based; conditions: read-out: Antiprotozoal activity MIC (μg/ml) Tetrahymena pyriformis W
Procedure: Antiprotozoal activity of compound (I) was assayed with Tetrahymena pyriformis W as the test organism and a medium composed of 20 g tryptose-peptone (Difoo Cc.), 1 g; yeast extract, 2 g glucose, 1000 mℓ distilled water, 10 mℓ IM phosphate buffer (pH 7.0) as the assay medium. The microorganism was incubated at 28°C for 44 to 48 hours and the growth inhibitory activity of compound (I) was assayed by the serial dilution method.

| Compound | Antitumor activities P-388 (T/C %) (leukemia P-388; Dose 50 µg/kg) | Antitumor activities P-388 (T/C %) (leukemia P-388; Dose 100 µg/kg) | Antitumor activities P-388 (T/C %) (leukemia P-388; Dose 200 µg/kg) | Antitumor activities P-388 (T/C %) (leukemia P-388; Dose 400 µg/kg) | Antitumor activities B-16 (T/C %) (melanoma B-16; Dose 100 µg/kg) | Antitumor activities B-16 (T/C %) (melanoma B-16; Dose 200 µg/kg) | Antitumor activities B-16 (T/C %) (melanoma B-16; Dose 400 µg/kg) | Antitumor activities B-16 (T/C %) (melanoma B-16; Dose 800 µg/kg) | MIC (Tetrahymena pyriformis W; incubated at 28°C for 44 to 48 hours, serial dilution method) | MIC (Tetrahymena pyriformis W) |
| --- | --- | --- | --- | --- | --- | --- | --- | --- | --- | --- |
| COc1cc2cc(c1)N(C)C(=O)CC(OC(=O)C(C)C)C1(C)OC1C(C)C1CC(O)(NC(=O)O1)C(OC)/C=C/C=C(\C)C2 (stereo not shown) [Dechloromaytansinol 3-isobutyrate, dechloromaytansinol 3-isobutyrate] | 168 T/C % | 189 T/C % | 193 T/C % | 224 T/C % | 150 T/C % | 152 T/C % | 174 T/C % | 214 T/C % |  |  |
| COc1cc2cc(c1)N(C)C(=O)CC(OC(=O)Cc1ccccc1)C1(C)OC1C(C)C1CC(O)(NC(=O)O1)C(OC)/C=C/C=C(\C)C2 (stereo not shown) [Dechloromaytansinol 3-phenylacetate, dechloromaytansinol 3-phenylacetate] |  |  |  |  |  |  |  |  | 2 µg/mL (≈ 3.08 µM) |  |
| COc1cc2cc(c1)N(C)C(=O)CC(OC(=O)CCl)C1(C)OC1C(C)C1CC(O)(NC(=O)O1)C(OC)/C=C/C=C(\C)C2 (stereo not shown) [Dechloromaytansinol 3-chloroacetate, dechloromaytansinol 3-chloroacetate] |  |  |  |  |  |  |  |  |  | ≥ 4 µg/mL |
| dechloromaytansine | 158 T/C % | 165 T/C % | 175 T/C % | 189 T/C % | 171 T/C % | 152 T/C % | 179 T/C % | 190 T/C % |  |  |
| COc1cc2cc(c1)N(C)C(=O)CC(OC(=O)C1CCCCC1)C1(C)OC1C(C)C1CC(O)(NC(=O)O1)C(OC)/C=C/C=C(\C)C2 (stereo not shown) [dechloromaytansinol 3-cyclohexanecarboxylate] |  |  |  |  |  |  |  |  |  | 4 µg/mL (≈ 6.24 µM) |
